Measured values taken from PubChem BioAssay (NCI).
Where “and” joins values, the source holds several entries; their conditions need not be identical. Equal entries are not always repeated.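 96-well plates; 48 h exposure; 5 concentrations. Endpoints by linear interpolation between flanking doses. Not reached: highest tested concentration assigned. GI50 = concentration required for 50% inhibition of growth. Definition used: TGI = concentration required for complete inhibition of growth.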

Key:
Experiment in all cases: NCI-60 cell line screen, 48 h
[1] = system: A549 NSCLC
[2] = system: MOLT-4 leukemia
[3] = system: NCI-H226 lung
[4] = system: OVCAR-5 ovarian
[5] = system: RPMI-8226 leukemia
[6] = system: SF-539 CNS
[7] = system: BT-549 breast
[8] = system: MDA-MB-435
[9] = system: OVCAR-8 ovarian
[10] = system: PC-3 prostate

Compound | TGI [1] [µM] | TGI [2] [µM] | TGI [3] [µM] | GI50 [4] [µM] | TGI [4] [µM] | TGI [5] [µM] | TGI [6] | TGI [7] [µM] | TGI [8] [µM] | TGI [9] [µM] | TGI [10] [µM] | GI50 [2] [µM] | GI50 [3] [µM] | GI50 [5] [µM] | GI50 [8] [µM] | GI50 [9] [µM] | GI50 [6] [µM] | GI50 [1] [µM] | GI50 [7] [µM]
COc1cc2c(c(OC)c1OC)-c1ccc(SC)c(=O)cc1[C@@H](NCc1ccc([N+](=O)[O-])cc1)CC2 | > 100 | > 100 | 0.0134 | > 100 | > 100 | > 100 | 0.00672 µM and 0.0112 µM |  |  |  |  |  |  |  |  |  |  |  | 
CCN(CC)C(=O)Cn1c2c(c3ccccc31)CCCC2 | > 100 |  |  |  | > 100 | > 100 | > 100 µM | > 100 | > 100 | > 100 | > 100 |  |  |  |  |  |  |  | 
Oc1ccc(Oc2cc3c(cc2Oc2ccc(O)cc2)-c2nc-3nc3[nH]c(nc4nc(nc5[nH]c(n2)c2cc(Oc6ccc(O)cc6)c(Oc6ccc(O)cc6)cc52)-c2cc(Oc5ccc(O)cc5)c(Oc5ccc(O)cc5)cc2-4)c2cc(Oc4ccc(O)cc4)c(Oc4ccc(O)cc4)cc32)cc1 | > 100 | > 100 | > 100 |  | > 100 |  | > 100 µM | > 100 | > 100 | > 100 | > 100 |  |  |  |  |  |  |  | 
CCCCCCCCC#CCCCCCCCCCC[C@@H]1C(=O)O[C@H](C)[C@@H]1O (tested in a mixture with another compound) | 28.6 | 33.5 | > 100 |  | > 100 | 39.9 | 42.1 µM | 38.5 |  | 29.1 | 46.9 |  |  |  |  |  |  |  | 
CCNc1cc2c3c(c1)CCN3CCC2 | > 10 | > 10 | > 10 |  |  | > 10 | > 10 µM |  | > 10 | > 10 | > 10 |  |  |  |  |  |  |  | 
O=C(O)c1ccccc1C1c2ccccc2Oc2ccccc21 | > 100 | > 100 | 65.7 |  | > 100 | > 100 |  | > 100 | > 100 | > 100 | > 100 |  |  |  |  |  |  |  | 
Cc1c([C@H](C)[C@@H]2NC[C@@H](C)C[C@H]2O)ccc2c1C[C@H]1[C@H]2CC=C2C[C@@H](O)CC[C@@]21C | 47.9 | 37.4 | 38.1 |  | 90.8 | 17.9 |  | 54.5 | 26.4 | > 100 | 32.1 |  |  |  |  |  |  |  | 
O=C(c1ccc(Cl)cc1)N1CCN=C1c1cc2ccccc2c2ccccc12 | 31 | > 100 |  |  | 35.1 | 55.8 | 29.1 µM | 33.6 | 31.9 | 33.5 | 37.2 |  |  |  |  |  |  |  | 
CCOC(=O)C1=C(O)c2ccc(C)cc2C(=O)C1=O | > 100 | > 100 | > 100 |  | > 100 | > 100 | > 100 µM |  |  | > 100 |  |  |  |  |  |  |  |  | 
COc1nc(C#CC2CCCCC2)nc(OC)n1 | 16.4 | > 100 |  |  | 12.3 | 6.53 | 6.31 µM | 14.6 | 10.1 | 3.44 | 16.3 |  |  |  |  |  |  |  | 
CSc1cnc2ccccc2c1Sc1c[nH]c2ccccc2c1=O | 24.8 | > 44.7 | 33 |  | 59.4 | 64.4 | 31.1 µM |  |  | 34.4 |  |  |  |  |  |  |  |  | 
O=C(N=Nc1ccccc1Cl)NNc1ccccc1Cl | > 100 | 82.9 | > 100 |  | > 100 | 65.6 |  |  | > 100 | 81.7 | > 100 |  |  |  |  |  |  |  | 
CCN(CC)CC1CCCCN1CC(=O)N1CC(C)C(=O)Nc2ccccc21 (stereo not drawn) | > 100 | > 100 | > 100 |  | > 100 | > 100 |  |  |  |  |  |  |  |  |  |  |  |  | 
Clc1cc(Cl)ncn1 | > 100 | > 100 | > 100 |  | > 100 | > 100 | > 100 µM |  | > 100 | > 100 | > 100 |  |  |  |  |  |  |  | 
[N-]=[N+]=NCC(O)Cn1cnc2c(NC(=O)c3ccccc3)ncnc21 (stereo not drawn) | > 100 | > 100 | > 100 |  | > 100 | > 100 | > 100 µM |  |  | > 100 |  |  |  |  |  |  |  |  | 
N/C(=N\N=C\c1ncccc1O)NO | > 100 | > 64.4 | 58.1 |  | > 100 | > 100 | 59.1 µM |  |  | > 100 |  |  |  |  |  |  |  |  | 
C=C1C(C)C2C(Cc3ccccc3)NC(=O)C23OC(=O)/C=C\CC(=O)CCC(C)C/C=C/C3C1O (stereo not drawn) | 20.9 | 3.83 | 10.3 |  | 25.2 | 5.21 | 4.39 µM |  |  | 16.7 |  | 1.01 | 0.635 | 0.932 |  |  |  |  | 
COc1cc(N(CCC#N)CCC#N)ccc1/C=N\NC(=O)c1ccc(C)cc1 | > 100 | > 100 | > 100 |  | > 100 |  | > 100 µM | > 100 | > 100 | > 100 | 31.1 |  |  |  |  |  |  |  | 

Compound | TGI [1] [µM] | TGI [2] [µM] | TGI [3] [µM] | GI50 [4] [µM] | TGI [4] [µM] | TGI [5] [µM] | TGI [6] | TGI [7] [µM] | TGI [8] [µM] | TGI [9] [µM] | TGI [10] [µM] | GI50 [2] [µM] | GI50 [3] [µM] | GI50 [5] [µM] | GI50 [8] [µM] | GI50 [9] [µM] | GI50 [6] [µM] | GI50 [1] [µM] | GI50 [7] [µM]
Cc1c2ccncc2c(C)c2c1[nH]c1ccc(OCCN(C)C)cc12 | 0.844 | 0.157 | 0.976 |  | 1.59 | 0.135 | 2.38 µM |  |  | 0.543 |  |  |  |  |  |  |  |  | 
COc1ccc(C(=O)/C=C/c2cc(-c3cc(OC)c(OC)c(OC)c3)n[nH]2)cc1 |  | 6.82 |  | 1.88 | 3.78 | 2.49 | 3.08 µM |  | 5.7 | 8.26 |  | 2.67 |  | 0.433 | 2.2 | 2.43 | 1.62 |  | 
CC1(C)C=C(/C=N/Nc2ccccc2)C(C#N)=C(O)C1(C#N)C#N | > 100 | > 100 | > 100 |  | > 100 | > 100 | > 100 µM |  | > 100 | > 100 | > 100 |  |  |  |  |  |  |  | 
O=C(O)/C=C\C(=O)Nn1c(Cc2ccc(Cl)cc2)n[nH]c1=O | > 100 | > 100 | > 100 |  | > 100 |  | > 100 µM | > 100 | > 100 | > 100 | > 100 |  |  |  |  |  |  |  | 
COc1ccc2cc(C(C)C(=O)N3C(=O)OCC3(C)C)ccc2c1 (stereo not drawn) | > 100 | > 100 | > 100 |  | > 100 | > 100 |  | > 100 | > 100 | > 100 | > 100 |  |  |  |  |  |  |  | 
CC(C)(C)C1=C(Br)C(O)(C(C)(C)C)OP1(=O)c1ccccc1 (stereo not drawn) | > 100 | > 100 |  |  | > 100 |  | > 100 µM |  | > 100 | > 100 | > 100 |  |  |  |  |  |  |  | 
S=C1SC(=Nc2ccccc2)C(=Nc2ccccc2)N1c1ccc2ccccc2c1 |  |  | > 100 |  | > 100 | > 100 |  | > 100 | > 100 | > 100 | > 100 |  |  |  |  |  |  |  | 
COc1ccccc1C1C(C#N)=C(N)Oc2n[nH]c(C)c21 (stereo not drawn) | > 100 | > 100 | > 100 | > 100 | > 100 | 29.6 | > 100 µM | > 100 | > 100 | > 100 |  | > 100 | 74.5 | 10.5 | 75.1 | > 100 | > 100 | > 100 | > 100
C[C@H](C1CC2(C)OC2(C)C(=O)O1)[C@H]1CC[C@H]2[C@@H]3[C@@H]4O[C@@H]4[C@@]4(O)CC=CC(=O)[C@]4(C)[C@H]3CC[C@]12C (stereo partly drawn) | > 50 | > 50 | > 50 |  | > 50 | > 50 |  | > 50 | > 50 | > 50 | > 50 |  |  |  |  |  |  |  | 
CC(=O)OCC1OC(n2c(C)c(C)c(C)c(C#N)c2=S)C(OC(C)=O)C(OC(C)=O)C1OC(C)=O (stereo not drawn) | > 100 | > 100 | > 100 |  | > 100 |  | > 100 µM |  | > 100 | > 100 | > 100 |  |  |  |  |  |  |  | 
O=c1c2ccccc2nc2ccc3c(Cl)[nH][nH]c3c12 | > 100 | > 79 | > 48.4 |  | 98 | > 100 |  |  |  | > 100 |  |  |  |  |  |  |  |  | 
N#Cc1c(N)nc2c3c1NC(=O)C(C(N)=O)C3c1ccccc1O2 (stereo not drawn) | > 100 | > 100 | > 100 |  | > 100 | > 100 | > 100 µM |  | > 100 | > 100 | > 100 |  |  |  |  |  |  |  | 
O=c1[nH]c(=O)n(C2OC(CO)C(O)C2O)cc1OCCCc1ccccc1 (stereo not drawn) | > 100 | > 100 | > 100 |  | > 100 |  | > 100 µM |  | > 100 | > 100 | > 100 |  |  |  |  |  |  |  | 
NC(=S)NC/C=C/Cl | > 100 | > 100 | > 100 |  | > 100 | > 100 |  | > 100 | > 100 | > 100 | > 100 |  |  |  |  |  |  |  | 
COc1ccc(Oc2ccccc2N)cc1 | > 100 | > 100 | > 100 |  | > 100 | > 100 | 57.3 µM |  |  | > 100 |  |  |  |  |  |  |  |  | 
O=C1NC(Cc2ccc(O)cc2)C(=O)NC1Cc1ccc(O)cc1 (stereo not drawn) | > 100 | > 100 | > 100 |  | > 100 | > 100 | > 100 µM |  | > 100 | > 100 | > 100 |  |  |  |  |  |  |  | 
CC(C)Oc1cccc(N2C(Nc3ccccc3)=Nc3ccncc3S2(=O)=O)c1 | > 100 | > 100 | 83.2 |  | > 100 |  | 44.9 µM | 66.4 | 57 | 43.4 | 45.6 |  |  |  |  |  |  |  | 
